Data from patent US10945994B2, “Combinations comprising a pyrrolidine-2,5-dione IDO1 inhibitor and an anti-body” (Pfizer Inc., priority 2015, dated 2021).
Read-outs that look alike come from different tables or passages of the source.

Assays:
mouse TDO2 = mouse TDO2 (Mus musculus (Mouse), UniProt P48776); experiment: TDO2 activity assay in P815 mouseTDO2 clone 12 cells; assay type: cell-based
Description: P815 mTDO2 c112 cells were generated as described in Pilotte et al, Proc Natl Acad Sci, 109(7): 2497-2502 (2012). They were seeded in 96-well plates (50,000 cells/well), treated with increasing concentrations of compounds and incubated for 16-18 h. Kynurenine concentrations were determined as described above. The reaction was run with single replicate.

IDO1 [1] = molecular target: T1, IDO1 (Homo sapiens (Human), UniProt P14902); experiment: IDO1 enzymatic activity by mass spectrometry assay; assay type: biochemical; conditions: human enzyme; varied tryptophan and inhibitor concentrations
Description: (§1) The full length complementary deoxyribonucleic acid (cDNA) for human IDO1 was cloned into a pFastbac-1 based vector and the full length cDNA for mouse and dog was cloned into a pET24a based vector. […] Human IDO1 was expressed in insect cells and purified using Ni affinity column. The mouse and dog IDO1 were expressed in Escherichia coli BL21 (DE3) and purified using a Ni affinity column. To obtain non-tagged, pure, and hemin loaded IDO1, TEV protease treated and tag removed protein was incubated with 10× molar ratio of hemin (dissolved in 25 mM NaOH) to protein at 4° C. overnight followed by size exclusion chromatography (SEC) for human IDO1 and anion exchange and SEC for mouse and dog IDO1.
The inhibition of human, dog and mouse IDO1 was measured by quantitating tryptophan and the generation of kynurenine by MS. […] The HCl stops the enzyme reactions and also converts the N-formyl kynurenine to kynurenine. […] Detection of tryptophan and kynurenine was accomplished following injection of assay reaction (injection loop volume is 10 μL) onto an Agilent Graphite Type D cartridge in 0.01% trifluoroacetic acid (TFA) plus 0.09% formic acid and eluted using 80% acetonitrile, 0.09% formic acid and 0.01% TFA. […]

TDO2 [2] = molecular target: T2, TDO2 (Homo sapiens (Human), UniProt P48775); experiment: TDO2 activity assay in A172 and THP-1 cells; assay type: cell-based; conditions: for A172 and THP-1 cells TDO2 inhibition: @50 μM; for inhibitory activity in any of the human or mouse TDO2 assays: human biochemical and cellular, murine cellular, concentrations of up to 50 μM
Description: A172 cells were seeded in 96-well plates (12500 cells/well), treated with increasing concentrations of compounds and incubated for 16-18 h at 37° C., 5% CO2. Then TCA was added to the supernatant to stop the reaction. […] Kynurenine concentrations were determined by measuring absorbance at 480 nm. The reaction was run with single replicate.
THP-1 cells were stimulated with 2 ng/ml PMA for 24 h, then seeded in 96-well plates (100,000 cells/well), treated with 2 ng/ml PMA and increasing concentrations of compounds, and incubated for 24 h. Kynurenine concentrations were determined as described above. The reaction was run with single replicate.

[3] = system: PancO2 pancreas cancer cells; experiment: In vivo efficacy in PancO2 pancreatic cancer syngeneic model; set-up: species or system C57/Bl6 mice; conditions: 200 mg/kg BID oral
Description: In vivo efficacy studies were performed on PancO2 syngeneic tumor model of C57/Bl6 mice implanted sub-cutaneously. Five millions PancO2 pancreas cancer cells were implanted sub-cutaneously to 7 weeks old C57/Bl6 mice (day 0). Animals were randomized based on tumor size when tumor average reached 60 mm^3 (between day 10 and 12) into different treatment cohorts. The Compound was administered orally twice per day (approximately at 9 am and 5 pm) starting the day of randomization. The test compound shown below in the table was suspended into Methocel® vehicle and sonicated before oral administration to animals using gavage needles. Treatment was administered daily until the end of the study. All experimental animals were monitored for body weight changes weekly. Tumor volume was measured weekly using a caliper device and calculated with the following formula: Tumor volume=0.5×(length×width^2). Studies were terminated before tumor volumes reached […]. TGI (% tumor growth inhibition) was determined as
Treatment was administered daily until the end of the study. Tumor volume was measured weekly using a caliper device and calculated with the following formula: Tumor volume=0.5×(length×width^2). Mice were considered as dead when tumor size reached 400 mm^3. […] SEM refers to standard error of measurement.

[4] = Passive permeability in RRCK cells; assay type: in vitro ADME, canine; conditions: dog, MDCK, read-out: intrinsic permeability, apical to basolateral (A to B)
Description: In vitro Absorption: passive permeability was evaluated in Ralph-Russ canine kidney (RRCK) cells; high intrinsic permeability with an apical to basolateral (A to B) value of 25.5×10^−6 cm/sec. CNS Penetration: CNS distribution was investigated in male rats.

IDO1 [5] = molecular target: T1, IDO1; experiment: Human whole blood assay (+ IFNγ/LPS); assay type: cell-based; conditions: read-out: unbound IC90, human whole blood
Description: Human whole blood was collected in sodium heparin and gently mixed. Then 25 mg/mL LPS (Sigma) and 100 ng/mL. IFNg (R&D) was added and transferred immediately to a 96-well U bottom plate, 200 mL per well. […] The final DMSO concentration was 0.5%. Following overnight incubation at 37° C., a 30 mL aliquot was precipitated with 270 mL acetonitrile/HPLC water (70:30), vortexed vigorously, and centrifuged at 3220×g for 15 minutes at 10° C. An aliquot of the supernatant organic solution was diluted in 0.1% Formic acid and spiked with stable labeled isotopes of kynurenine and tryptophan as internal standards prior to analysis. Kynurenine inhibition was determined by dividing the drug treated internal standard adjusted kynurenine counts by the positive control internal standard adjusted value. The no drug treated sample containing DMSO was used as the positive control. […] The IC50 and IC90 calculations were conducted in GraphPad Prism version 6.03.
In order to determine compound potency in a human cellular system, human whole blood was collected from 9 subjects. […] The unbound inhibitor IC50 and IC90 values were computed by applying a conversion for the unbound fraction value in whole blood, 0.419.

B16-F10 cells = experiment: B16-F10 melanoma model, combination with anti-PD-L1 and anti-4-1BB; assay type: in vivo, C57BL/6J mice; conditions: PF-06840003 600 mg/kg BID, anti-4-1BB 1 mg/kg, anti-PD-L1 10 mg/kg d9, 12, 15, 18
Description: B16-F10 cells were obtained from the ATCC and grown following instructions on ATCC's website. 2×10^5 cells were implanted in […] PBS sc in the right flank of female C57BL/6J (Jackson labs) mice. Mice (n=20) were randomized into treatment groups and treatment initiated on day 9 after implant at a mean tumor size of 60 mm3. Antibody treatments were given as i.p. injection on day 9, 12, 15 and 18. anti-PD-L1 antibody (clone 10F.9G2; rat IgG2b) was purchased from BioxCell. anti-4-1BB antibody (MAB9371; rat IgG1—murinized) was purchased from R&D systems. […] All animal experimentation was approved in advance by and executed following Pfizer's IACUC.

CT26 tumors = experiment: CT26 syngeneic colon tumor model, combination with avelumab; assay type: in vivo, Balb/c mice; conditions: for % TGI (D15) / % TGI (D17) / % TGI (D20): Compound 1 200 mg/kg BID, Avelumab 10 mg/kg
Excerpt: FIGS. 5A-5E show combinatorial anti-tumor effects of an IDO1 inhibitor and an anti-PD-L1 (avelumab) in the sc CT26 syngeneic mouse colon tumor model in Balb/c mice. […] FIGS. 5B-5E show the individual tumor growth curves.
Avelumab is a fully human anti-PD-L1 IgG1 monoclonal antibody, and thus, is not optimized for mouse.

4T1 breast cancer cells = experiment: In vivo efficacy in 4T1 breast cancer syngeneic model; set-up: species or system Balb/c mice; conditions: 100 mg/kg BID oral
Description: In vivo efficacy studies were performed on 4T1 syngeneic tumor model of Balb/c mice implanted orthotopically in the mammary gland. One hundred thousand 4T1 breast cancer cells (ATCC® CRL-2539™)] were implanted orthotopically within the mammary gland of 7 weeks old Balb/c mice (day 0). Animals were randomized based on tumor size when tumor average reached 60 mm^3 (between day 7 and 11) into different treatment cohorts. The test compound was administered orally twice per day (approximately at 9 am and […]) starting the day of randomization. The test compounds were suspended into Methocel™ cellulose ether vehicle and sonicated before oral administration to animals using gavage needles. Treatment was administered daily until the end of the study. All experimental animals were monitored for body weight changes twice weekly. Tumor volume was measured twice a week by a caliper device and calculated with the following formula: Tumor volume=0.5×(length×width^2). Studies were terminated before tumor volumes reached […]. TGI (% tumor growth inhibition) was determined as […]

TDO2 [6] = molecular target: T2, TDO2; experiment: Human TDO2 enzymatic assay; assay type: biochemical
Description: The protocol was adapted from Dolusic et al, 2011. Briefly, the reaction mixture ([…]) contained TRIS buffer (50 mM, pH 7.5), methylene blue (0.125 mM), ascorbic acid (0.25 M), catalase (40 units/mL) and human recombinant TDO2 enzyme (prepared as described in Dolusic et al, 2011; 0.9 mg) with increasing concentrations of compounds (1.0 nM to […]). The reaction was run with single replicate. The reaction was initiated by the addition of the substrate L-tryptophan (1 mM).

mouse IDO1 = mouse IDO1 (Mus musculus (Mouse), UniProt P28776); experiment: IDO1 enzymatic activity by mass spectrometry assay; assay type: biochemical; conditions: MS assay; geometric mean (95% confidence interval); read-out: Enzyme Activity IC50 mouse IDO1
Description: as §1
(§2) The inhibition of human, dog and mouse IDO1 was measured by quantitating tryptophan and the generation of kynurenine by MS. IDO1 enzyme (1 nM) was incubated with various concentrations of the inhibitor ([…] to 1 nM), in duplicate, at room temperature in […] buffer (Mg2+, Ca2+−PBS, 20 mM ascorbic acid, 10 mM methylene blue, 800 nM catalase, […]). […] The HCl stops the enzyme reactions and also converts the N-formyl kynurenine to kynurenine. […] Detection of tryptophan and kynurenine was accomplished following injection of assay reaction (injection loop volume is 10 μL) onto an Agilent Graphite Type D cartridge in 0.01% trifluoroacetic acid (TFA) plus 0.09% formic acid and eluted using 80% acetonitrile, 0.09% formic acid and 0.01% TFA. The finalized RapidFire settings were as follows: aspiration time: 600 ms or until the loop is full per the sip sensor, load time: 5000 ms, elution time: 5000 ms, and re-equilibration time: 500 ms at a flow rate of 1.5 mL/min.

dog IDO1 = dog IDO1 (Canis lupus familiaris, UniProt A0A8I3N1Y1); experiment: IDO1 enzymatic activity by mass spectrometry assay; assay type: biochemical; conditions: dog enzyme; varied tryptophan and inhibitor concentrations
Description: as §1, §2

[7] = system: panel of receptors, ion channels, transporters and enzymes (64 targets in total); experiment: Cerep Wide Ligand Profile Screen; conditions: initial concentration of 200 μM
Description: Three hits were noted (defined by a response greater that 50% of a maximal response) and follow up curves were performed by Cerep.

[8] = system: IDO1-expressing SKOV3 cells co-cultured with human PBMC; experiment: T cell - SKOV3 co-culture assay with human serum (II.9); assay type: cell-based; conditions: SK-OV-3, read-out: T-cell proliferation in SKOV3 co-culture system (50% serum) IDO1 IC50 ± SD (n)
Description: Three different concentrations of human serum (10%, 25% or 50%) were used to mimic the consequences of protein binding in human. […] T cell proliferation was measured by incorporation of ^3H-thymidine after 48 h of co-culture. IC50 of T cell proliferation, tryptophan (Trp) decrease and kynurenine (Kyn) increase were determined. FIG. 7D illustrates Trp to Kyn conversion in 10% HS. […] FIG. 7F illustrates Trp to Kyn conversion in 50% HS. Tryptophan and kynurenine concentrations in supernatant were assessed using LC-MS/MS after 24 h of co-culture. […]
Human peripheral blood mononuclear cells were isolated from buffy coats, purified by density gradient centrifugation on Lymphoprep™ (StemCell), stimulated with CD3/CD28 beads (Invitrogen) and hIL-2 (Novartis) in IMDM with 10%, 25% or 50% of HS, for 15 min and then added to the SKOV3 plates. […] After an incubation of 24 h, the tryptophan and kynurenine concentrations in conditioned medium were assessed using LC-MS/MS. ^3H-thymidine was added to the co-cultures for another 24 h incubation period. Thymidine incorporation was measured using a TopCount counter (Perkin Elmer). Data were fitted and IC50 determined by using the Prism™ software (GraphPad software Inc.).

[9] = system: PancO2 pancreas cancer cells; experiment: PancO2 syngeneic model survival, combination with anti-CTLA4 antibody; assay type: in vivo, C57/Bl6 mice; conditions: dead when tumor size reached 400 mm^3, anti-CTLA4 200 μg i.p., Compound 2 100 mg/kg BID
Description: In vivo efficacy studies of IDO1 inhibitor were performed on PancO2 syngeneic tumor model of C57/Bl6 mice implanted sub-cutaneously essentially as described in Example II.5. Five million PancO2 pancreas cancer cells were implanted sub-cutaneously to 7 weeks old C57/Bl6 mice (day 0). […] Anti-CTLA4 (Clone 9 h10, 200 μg/mouse, i.p. in PBS) was administered at day 11, 14 and 17. […] Treatment was administered daily until the end of the study. Tumor volume was measured weekly using a caliper device and calculated with the following formula: Tumor volume=0.5×(length×width^2). Mice were considered as dead when tumor size reached 400 mm^3.

T2 sequence (P48775 whole entry): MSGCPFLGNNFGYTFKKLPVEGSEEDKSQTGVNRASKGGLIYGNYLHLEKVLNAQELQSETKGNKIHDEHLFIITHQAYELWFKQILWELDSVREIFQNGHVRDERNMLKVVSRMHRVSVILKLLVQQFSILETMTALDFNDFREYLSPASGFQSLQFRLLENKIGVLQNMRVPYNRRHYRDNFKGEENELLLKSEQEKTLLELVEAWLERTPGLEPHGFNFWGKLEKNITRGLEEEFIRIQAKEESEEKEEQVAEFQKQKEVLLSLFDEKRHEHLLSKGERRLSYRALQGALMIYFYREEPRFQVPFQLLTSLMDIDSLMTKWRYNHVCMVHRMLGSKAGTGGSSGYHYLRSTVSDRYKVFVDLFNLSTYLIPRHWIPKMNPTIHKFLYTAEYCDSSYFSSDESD
T1 sequence (P14902 whole entry): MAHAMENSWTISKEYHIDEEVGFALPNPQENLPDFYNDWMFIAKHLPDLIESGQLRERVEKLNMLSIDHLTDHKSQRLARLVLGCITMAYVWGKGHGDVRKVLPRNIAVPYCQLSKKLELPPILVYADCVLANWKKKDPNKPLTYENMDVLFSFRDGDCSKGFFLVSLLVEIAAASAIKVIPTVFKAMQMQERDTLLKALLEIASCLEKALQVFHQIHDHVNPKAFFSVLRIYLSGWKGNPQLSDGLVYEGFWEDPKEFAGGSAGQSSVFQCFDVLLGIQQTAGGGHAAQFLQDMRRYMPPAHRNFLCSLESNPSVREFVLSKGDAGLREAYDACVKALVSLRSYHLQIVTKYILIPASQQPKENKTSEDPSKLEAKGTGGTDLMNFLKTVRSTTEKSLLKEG
Sequence of dog IDO1 (A0A8I3N1Y1 1-402): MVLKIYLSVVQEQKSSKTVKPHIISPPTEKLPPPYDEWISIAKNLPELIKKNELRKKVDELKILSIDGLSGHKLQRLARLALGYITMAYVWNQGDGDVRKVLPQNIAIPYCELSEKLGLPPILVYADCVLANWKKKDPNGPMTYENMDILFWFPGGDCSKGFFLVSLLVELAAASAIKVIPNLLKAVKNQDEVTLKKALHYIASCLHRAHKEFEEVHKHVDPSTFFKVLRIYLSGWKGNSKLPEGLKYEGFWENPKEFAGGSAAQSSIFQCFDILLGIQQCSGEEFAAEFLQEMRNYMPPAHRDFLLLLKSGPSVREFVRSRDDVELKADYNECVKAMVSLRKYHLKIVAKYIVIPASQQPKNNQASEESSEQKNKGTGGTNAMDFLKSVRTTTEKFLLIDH
Sequence of mouse TDO2 (P48776 whole entry): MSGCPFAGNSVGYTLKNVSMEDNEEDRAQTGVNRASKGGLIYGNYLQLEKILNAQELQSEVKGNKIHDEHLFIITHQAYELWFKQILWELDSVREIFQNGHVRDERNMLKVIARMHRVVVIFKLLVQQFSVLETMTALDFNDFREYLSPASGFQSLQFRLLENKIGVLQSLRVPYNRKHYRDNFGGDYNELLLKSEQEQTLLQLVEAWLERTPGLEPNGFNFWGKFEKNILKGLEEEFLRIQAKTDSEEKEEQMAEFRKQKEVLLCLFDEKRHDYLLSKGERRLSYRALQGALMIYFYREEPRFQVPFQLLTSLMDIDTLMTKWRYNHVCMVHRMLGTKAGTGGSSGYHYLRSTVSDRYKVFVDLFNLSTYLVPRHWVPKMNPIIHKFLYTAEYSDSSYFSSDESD
Sequence of mouse IDO1 (P28776 whole entry): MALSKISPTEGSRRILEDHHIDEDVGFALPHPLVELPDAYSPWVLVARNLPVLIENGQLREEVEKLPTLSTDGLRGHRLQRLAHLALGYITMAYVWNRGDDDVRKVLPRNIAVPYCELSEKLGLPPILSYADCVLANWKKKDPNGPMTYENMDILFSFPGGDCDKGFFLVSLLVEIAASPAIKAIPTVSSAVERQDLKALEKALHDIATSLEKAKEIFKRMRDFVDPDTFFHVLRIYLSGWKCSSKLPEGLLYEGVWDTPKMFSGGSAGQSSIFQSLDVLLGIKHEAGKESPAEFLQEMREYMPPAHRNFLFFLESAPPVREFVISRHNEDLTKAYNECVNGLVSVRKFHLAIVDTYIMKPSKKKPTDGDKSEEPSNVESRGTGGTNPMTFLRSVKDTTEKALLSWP

Row | Compound | IC50 (mouse TDO2) [µM] | mechanism of inhibition, preferred model fit (IDO1 [1]) | A172 and THP-1 cells TDO2 inhibition (TDO2 [2]) | inhibitory activity in any of the human or mouse TDO2 assays (TDO2 [2]) | % TGI (D15) (CT26 tumors) [%] | % TGI (D17) (CT26 tumors) [%] | % TGI (D20) (CT26 tumors) [%] | IC50 (TDO2 [6]) [µM] | IC50 (mouse IDO1) [µM] | mechanism of inhibition, preferred model fit (dog IDO1) | other results
1 | O=C1CC(c2c[nH]c3ccc(F)cc23)C(=O)N1 (racemic) [Compound 1, 3-(5-fluoro-1H-indol-3-yl)pyrrolidine-2,5-dione] | > 50 | uncompetitive inhibition | no inhibition | did not display any significant inhibitory activity | 38 | 41 | 34 | > 50 | 1.5 | noncompetitive inhibition | Mean tumor volume on day 42 [3]: 457.0 mm^3; TGI (Tumor growth inhibition) ([3]; day 42): 26.2%; Papp A→B [4]: 25.5 ×10⁻⁶ cm/s; IC90 (IDO1 [5]): 10.7 µM; % TGI (D17) (B16-F10 cells): 32%; % TGI (D20) (B16-F10 cells): 49%; Mean tumor volume on day 25 (4T1 breast cancer cells): 443.7 mm^3; TGI (Tumor growth inhibition) (4T1 breast cancer cells; day 25): 43.4%; hits (response greater than 50% of a maximal response) in off target panel [7]: Three
2 | O=C1C[C@H](c2c[nH]c3ccc(F)cc23)C(=O)N1 [Compound 2, (−)-(R)-3-(5-fluoro-1H-indol-3-yl)pyrrolidine-2,5-dione] | > 50 | uncompetitive inhibition | no inhibition | did not display any significant inhibitory activity |  |  |  | > 50 | 0.73 | noncompetitive inhibition | IC90 (IDO1 [5]; conversion with unbound fraction in whole blood 0.419): 5.69 µM; IC50 [8]: 0.08 ± 0.05 µM; % Survival at Day 55 [9]: 0%
3 | Avelumab: fully human anti-PD-L1 IgG1 monoclonal antibody |  |  |  |  | 54 | 59 | 51 |  |  |  | tumor growth inhibition (TGI), summary (CT26 tumors): about 50%
